# From patent US20110046225A1, “Pharmaceutical formulation containing palmitoyl ethanolamide and stearoyl ethanolamide” (VERMONT ITALIA SRL, priority 2008, published 2011)
# Experiments:
# RBL-2H3 cells = assay: inhibition of β-hexosaminidase release in IgE/DNP-stimulated RBL-2H3 mastocyte cells; format: cell-based; conditions: stimulated RBL-2H3 cells, culture medium; for INHIBITION OF β-HEXOSAMINIDASE RELEASE (% on test): 10 μM
# From the text: More specifically, a RBL-2H3 mastocyte cell line was used to express high-affinity receptors for the IgE immunoglobulins. The interaction of the antigens with the IgE molecules present on the cell surface stimulates secretion by said cells of the pro-inflammatory contents of their intracytoplasmic granules, amongst which significant quantities of: histamine, leukotrienes, prostaglandins and TNF-alfa. The RBL-2H3 therefore represent an excellent cell module for the study of the mechanisms of exocytosis and release of the inflammatory mediators and of the relative modulation, as the case may be. In particular, measurement of the activity by the β-hexosaminidase enzyme was performed, the release of which correlates positively with the secretion of very strong pro-inflammatory mediators such as histamine and TNF-alfa. As already specified, a RBL-2H3 mastocyte cell line was used to express high-affinity receptors for the IgE immunoglobulins, whilst the assessment of cell vitality was recorded by way of the MTT method. The RBL-2H3 cell culture was started with a density amounting to 20,000 cells/well (96 wells) and incubated with IgE-anti-DNP. After about one hour, the antigen (DNP) was introduced into the culture, then after another 30 minutes the culture medium was harvested. Measurement of the activity by the β-hexosaminidase enzyme was performed on the harvested […], the release of which correlated positively with the secretion of very strong pro-inflammatory mediators such as histamine and TNF-alfa. A reduction of the enzymatic activities in the culture medium signifies minor cell degranulation and thus […]. The molecules according to the patent application herein were solubilised in DMSO and both added in variable concentrations to the cell cultures 1 hour prior to the introduction of the antigen.
# receptor GPR55 = receptor GPR55 (Homo sapiens, UniProt Q9Y2T6); conditions: Ryberg et al. 2007; cited from earlier work
# Chain of receptor GPR55 (Q9Y2T6 whole entry): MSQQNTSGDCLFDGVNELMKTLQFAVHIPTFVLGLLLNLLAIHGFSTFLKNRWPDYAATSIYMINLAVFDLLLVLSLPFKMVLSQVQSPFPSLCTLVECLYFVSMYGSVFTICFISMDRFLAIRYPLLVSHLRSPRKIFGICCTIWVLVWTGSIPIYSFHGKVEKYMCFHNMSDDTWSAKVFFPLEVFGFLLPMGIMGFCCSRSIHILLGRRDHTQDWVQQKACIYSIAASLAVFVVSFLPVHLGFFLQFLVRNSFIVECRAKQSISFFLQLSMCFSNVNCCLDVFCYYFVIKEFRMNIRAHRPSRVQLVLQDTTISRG
# [1] = cited from earlier work
# [2] = U.S. Pat. No. 5,990,170; 5,679,667; 5,506,224; cited from earlier work
compound,measurement,setting,value
"C[C@@H]1C[C@H]2[C@@H]3CCC4=CC(=O)C=C[C@]4(C)[C@@]3(F)[C@@H](O)C[C@]2(C)[C@@]1(O)C(=O)CO [Desametazone, reference compound]",INHIBITION OF β-HEXOSAMINIDASE RELEASE (% on test),RBL-2H3 cells,40.2%
"CCCCCCCCCCCCCCCC(=O)NCCO [Palmitoyl ethanolamide (PEA), palmitoyl ethanolamide]",affinity for GPR55,receptor GPR55,nano-mole affinity array
same,inhibition at 10 µM,"RBL-2H3 cells; Rattus norvegicus, read-out: INHIBITION OF β-HEXOSAMINIDASE RELEASE (% on test)",23.6%
"CCCCCCCCCCCCCCCCCC(=O)NCCO [Stearoyl ethanolamide (SEA), Stearoyl ethanolamide]",INHIBITION OF β-HEXOSAMINIDASE RELEASE (% on test),RBL-2H3 cells,25.3%
same,solubility in aqueous environments,[1],extremely scarce
same,anti-inflammatory activity relative to PEA,[2],much less active than the lower homologue PEA
"CCCCCc1cc(O)c2c(c1)OC(C)(C)[C@@H]1CCC(C)=C[C@@H]21 [THC, delta-9-tetrahydrocannabinol, reference compound]",affinity for GPR55,receptor GPR55,nano-mole affinity array
